Reference: article PMC7155171, “Probing the Open Global Health Chemical Diversity Library for Multistage-Active Starting Points for Next-Generation Antimalarials” (ACS Infectious Diseases, 2020)
Like-named read-outs stand apart in the source and are kept apart here.

Legend:
[1] = system: P. falciparum Dd2 (PfLuc) line expressing firefly luciferase, asexual blood stage; assay: microbe, parasite or virus in culture; type: cell-based, Plasmodium falciparum; details: Plasmodium falciparum
[2] = system: P. falciparum Dd2; assay: SYBR green I asexual blood stage proliferation assay (96 h); type: cell-based, Plasmodium falciparum; details: Plasmodium falciparum, DD2, 11-pt dose response, 96hr
[3] = DD2, read-out: CDD P. falciparum Luciferase ABS 11-pt Reconfirmation Dose Response (48hr): IC50 (μM), 11-pt dose response, 48hr
[4] = DD2, 8-pt dose response, 96hr, read-out: CDD P. falciparum Luciferase ABS 8-pt Reconfirmation Dose Response (96hr): IC50
[5] = DD2, 8-pt dose response, 96hr, read-out: CDD P. falciparum Luciferase ABS 8-pt Reconfirmation Dose Response (96hr): Maximum inhibition (%)
[6] = DD2, 11-pt dose response, 48hr, read-out: CDD P. falciparum Luciferase ABS 11-pt Reconfirmation Dose Response (48hr): Maximum inhibition (%)
[7] = DD2, 11-pt dose response, 96hr, read-out: CDD P. falciparum Luciferase ABS 11-pt Reconfirmation Dose Response (96hr): IC50
[8] = DD2, 11-pt dose response, 96hr, read-out: CDD P. falciparum Luciferase ABS 11-pt Reconfirmation Dose Response (96hr): Maximum inhibition (%)
[9] = Sybr Green I, read-out: CDD P. falciparum Sybr Green I ABS 11-pt Reconfirmation Dose Response (96hr): IC50
[10] = Sybr Green I, read-out: CDD P. falciparum Sybr Green I ABS 11-pt Reconfirmation Dose Response (96hr): Maximum inhibition (%)
[11] = DD2, read-out: P. falciparum Luciferase ABS 11-pt Reconfirmation Dose Response (48hr): IC50, 11-pt dose response, 48hr
[12] = DD2, 8-pt dose response, 96hr, read-out: P. falciparum Luciferase ABS 8-pt Reconfirmation Dose Response (96hr): IC50
[13] = DD2, 8-pt dose response, 96hr, read-out: P. falciparum Luciferase ABS 8-pt Reconfirmation Dose Response (96hr): Maximum inhibition (%)
[14] = DD2, 11-pt dose response, 48hr, read-out: P. falciparum Luciferase ABS 11-pt Reconfirmation Dose Response (48hr): Maximum inhibition (%)
[15] = DD2, 11-pt dose response, 96hr, read-out: P. falciparum Luciferase ABS 11-pt Reconfirmation Dose Response (96hr): IC50
[16] = DD2, 11-pt dose response, 96hr, read-out: P. falciparum Luciferase ABS 11-pt Reconfirmation Dose Response (96hr): Maximum inhibition (%)
[17] = read-out: P. falciparum Sybr Green I ABS 11-pt Reconfirmation Dose Response (96hr): IC50
[18] = read-out: P. falciparum Sybr Green I ABS 11-pt Reconfirmation Dose Response (96hr): Maximum inhibition (%)

SMILES	IC50 [1, 3]	IC50 [1, 4]	Emax [1, 5]	Emax [1, 6]	IC50 [1, 7]	Emax [1, 8]	IC50 [2, 9]	Emax [2, 10]	IC50 [1, 11]	IC50 [1, 12]	Emax [1, 13]	Emax [1, 14]	IC50 [1, 15]	Emax [1, 16]	IC50 [2, 17]	Emax [2, 18]
Cc1nn(C)cc1C1=NS(=O)(=O)N(C)C(C(=O)Nc2ccc(Cl)cc2)=C1 [DDD01058696]	1.23 µM	0.34 µM	96.1%	100%	0.511 µM	101%	705 nM	98.7%	–	–	–	–	–	–	–	–
Cn1ccnc1CN(Cc1ccccn1)Cc1ccccc1Cl [DDD01058741]	2.68 µM	0.59 µM	93.9%	94.3%	0.592 µM	100%	6140 nM	83.5%	–	–	–	–	–	–	–	–
Cc1ncc(CN(Cc2ccccn2)Cc2ccccc2Cl)n1C [DDD01058742]	3.44 µM	0.51 µM	86.1%	74%	0.999 µM	94.5%	1540 nM	67.5%	–	–	–	–	–	–	–	–
Fc1ccc(F)c(CN2CCC(c3cc4ncccc4cn3)CC2)c1 [DDD01058752]	1.07 µM	0.41 µM	96.2%	94.1%	0.979 µM	98%	859 nM	90.5%	–	–	–	–	–	–	–	–
Fc1cccc(CN2CCC(c3cc4ncccc4cn3)CC2)c1F [DDD01058754]	1.06 µM	0.78 µM	94.4%	95.6%	0.571 µM	99.9%	309 nM	86.9%	–	–	–	–	–	–	–	–
Clc1cccc(N[C@H]2CCCN[C@H]2Cc2ccccc2)c1 [DDD01058816]	1.92 µM	1.06 µM	95.6%	100%	0.64 µM	101%	3540 nM	94.8%	–	–	–	–	–	–	–	–
Cc1cc(CN2CCc3nc(-c4ccncc4)nc(O)c3CC2)c(C)s1 [DDD01058881]	–	–	–	–	–	–	–	–	9.43 µM	1.72 µM	88.5%	79%	2.93 µM	93.4%	6280 nM	78.2%
FC(F)(F)c1cc(C2CCNCC2)nc(-c2ccsc2)n1 [DDD01058935]	> 12.5 µM	0.67 µM	–	64.4%	> 1.39 µM	92.1%	4360 nM	60.5%	–	–	–	–	–	–	–	–
CC(C)(C)C(=O)N1C[C@H](c2ccsc2)[C@H]2CN(C3CCCCC3)CC[C@H]21 [DDD01058940]	> 12.5 µM	0.84 µM	83.6%	59.1%	2.03 µM	90.2%	8800 nM	74.2%	–	–	–	–	–	–	–	–
Cc1ccc(C2(CN3CCN(Cc4cnc(C)n4C)CC3)CC2)cc1 [DDD01059041]	1.95 µM	0.25 µM	–	77.8%	0.532 µM	–	1320 nM	88.5%	–	–	–	–	–	–	–	–
CN(C)CCN(C)C(=O)Cn1cccc2cc(-c3ccc(F)cc3)nc1-2 [DDD01059044]	1.87 µM	0.54 µM	95.7%	95.1%	1.9 µM	98.3%	1170 nM	99.6%	–	–	–	–	–	–	–	–
Cc1cccc(Nc2cccc(C3CCCN(Cc4ncc[nH]4)C3)n2)n1 (stereo not drawn) [DDD01059475]	1.69 µM	1.07 µM	95.8%	98.9%	> 1.39 µM	100%	965 nM	92.2%	–	–	–	–	–	–	–	–
CC(C)CNC(=O)C1(Cc2ccccc2-c2cccs2)CCNC1 (stereo not drawn) [DDD01059689]	> 12.5 µM	0.92 µM	73.8%	49.4%	> 1.39 µM	87.3%	> 12500 nM	45.7%	–	–	–	–	–	–	–	–
N[C@@H]1CCC[C@@H](Oc2ccc(F)cc2Oc2ccccc2)[C@@H]1O [DDD01059731]	> 1.4 µM	0.69 µM	93.5%	89.8%	> 1.39 µM	98.4%	4960 nM	86.9%	–	–	–	–	–	–	–	–
Cc1ccc(Oc2cc(F)ccc2O[C@@H]2CCC[C@@H](N)[C@H]2O)cc1 [DDD01059749]	2.7 µM	0.54 µM	92.7%	98%	> 1.39 µM	100%	2270 nM	95.9%	–	–	–	–	–	–	–	–
Cc1cccnc1CN1CC[C@H](Oc2cccc(F)c2)[C@@](C)(O)C1 [DDD01060871]	1.92 µM	0.92 µM	90.5%	93.1%	0.553 µM	100%	2590 nM	82.8%	–	–	–	–	–	–	–	–
CC1(C)CC(N(Cc2cccnc2)Cc2cccc(F)c2)CC(C)(C)N1 [DDD01060979]	3.32 µM	0.3 µM	88%	–	> 1.39 µM	98.4%	8550 nM	79.9%	–	–	–	–	–	–	–	–
Cc1ccsc1CN(Cc1cccnc1)C1CC(C)(C)NC(C)(C)C1 [DDD01060982]	4.19 µM	1.04 µM	88.1%	61.9%	1.59 µM	95.6%	> 4160 nM	70.5%	–	–	–	–	–	–	–	–
Cc1ccsc1CN(CCCN(C)C)Cc1ccccn1 [DDD01060996]	> 12.5 µM	0.55 µM	79.6%	51.6%	3.57 µM	82.3%	> 12500 nM	46.2%	–	–	–	–	–	–	–	–
COc1ccc(C(C)NCc2ccsc2)cc1Cn1cccn1 (stereo not drawn) [DDD01061827]	> 12.5 µM	0.79 µM	81.9%	38.8%	1.78 µM	68.9%	> 4160 nM	58.7%	–	–	–	–	–	–	–	–
Cc1ccc(CNC(C)c2cc(F)ccc2N2CCN(C)CC2)o1 (stereo not drawn) [DDD01061881]	3.93 µM	0.41 µM	90.7%	87.5%	2.12 µM	97.7%	2420 nM	–	–	–	–	–	–	–	–	–
Cc1cnn(CCNCc2nccn2Cc2ccccc2)c1 [DDD01062085]	10.4 µM	0.53 µM	–	75%	1.22 µM	95.2%	> 12500 nM	51.3%	–	–	–	–	–	–	–	–
CN1CCC(N(Cc2ccco2)S(=O)(=O)c2ccc(Br)cc2Cl)CC1 [DDD01063208]	> 12.5 µM	0.58 µM	76.6%	21.3%	2.19 µM	81.7%	10600 nM	54.5%	–	–	–	–	–	–	–	–
Cc1ccc(CN(c2cc(C)nc3nc(C(F)(F)F)nn23)C2CC2)cc1 [DDD01063654]	2.34 µM	0.37 µM	–	89.4%	0.45 µM	99.7%	2100 nM	–	–	–	–	–	–	–	–	–
CN(Cc1cc(F)cc2cccnc12)CC1CCN(CCO)CC1 [DDD01063806]	3.63 µM	0.92 µM	93.1%	96.1%	2.11 µM	100%	1110 nM	93.2%	–	–	–	–	–	–	–	–
CN(Cc1cc(Cl)cc2cccnc12)CC1CCN(CCO)CC1 [DDD01063807]	2.2 µM	0.36 µM	94.1%	97.5%	1.42 µM	100%	584 nM	95.8%	–	–	–	–	–	–	–	–
c1cc(N2CCC(CN3CCOCC3)CC2)c2sccc2n1 [DDD01064806]	–	–	–	–	–	–	–	–	1.38 µM	1.43 µM	94.6%	99.7%	1.12 µM	100%	1150 nM	100%
CNC(=O)CCN(C)CC1(c2ccc(Br)cc2)CC1 [DDD01064880]	5.21 µM	0.54 µM	–	64.4%	4.63 µM	88.9%	6590 nM	73.3%	–	–	–	–	–	–	–	–
Cc1cc(C)c(CNCC(O)c2ccc(F)c(F)c2)c(C)c1 (stereo not drawn) [DDD01065539]	0.316 µM	0.15 µM	96.6%	97.4%	0.143 µM	100%	312 nM	99.5%	–	–	–	–	–	–	–	–
CC(NCCc1nccn1Cc1ccccc1)c1ccsc1 (stereo not drawn) [DDD01065612]	4.05 µM	1.09 µM	87.3%	68.1%	0.666 µM	88.3%	960 nM	77.4%	–	–	–	–	–	–	–	–
